# Assay results reported in US7892789B2, “Method of increasing cell permeability to trehalose by recombinantly producing a trehalose transporter” (priority 2007, dated 2011).
# Molecular target: T1, TRET1 (Polypedilum vanderplanki, UniProt A5LGM7)
# T1 construct: ORF of either Tret1, DmTret1, AmTret1, AgTret1 or BmTret1 cDNA was amplified with PCR; expressed in transfected cells; host or cells: Xenopus laevis oocytes injected with cRNA
# T1 sequence (A5LGM7 1-504): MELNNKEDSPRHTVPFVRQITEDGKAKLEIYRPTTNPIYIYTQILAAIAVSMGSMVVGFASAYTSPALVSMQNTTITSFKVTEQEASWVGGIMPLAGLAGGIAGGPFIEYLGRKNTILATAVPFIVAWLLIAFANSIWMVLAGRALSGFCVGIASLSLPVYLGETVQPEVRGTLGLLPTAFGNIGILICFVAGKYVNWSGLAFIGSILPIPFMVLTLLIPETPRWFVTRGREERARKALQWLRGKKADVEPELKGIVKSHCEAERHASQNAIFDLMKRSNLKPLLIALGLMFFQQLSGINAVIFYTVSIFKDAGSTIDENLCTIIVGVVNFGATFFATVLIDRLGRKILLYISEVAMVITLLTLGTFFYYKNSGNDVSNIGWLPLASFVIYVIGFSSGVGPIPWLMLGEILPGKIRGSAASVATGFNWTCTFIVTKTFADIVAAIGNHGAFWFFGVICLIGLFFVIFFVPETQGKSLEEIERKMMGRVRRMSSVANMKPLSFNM
# Type: cell-based
# Source text: The capped RNA (cRNA) expression vector pTRET1-XbG-ev1 series was constructed as follows: ORF of either Tret1, DmTret1, AmTret1, AgTret1 or BmTret1 cDNA was amplified with PCR using specific primers containing Bgl II site at the 5′-end on each primer, respectively. The PCR products were digested with the restriction enzymes, and cloned into the site of Bgl II in pXbG-ev1 (Preston, G. M., et al. (1992) Science 256, 385-387). ORF of hGLUT1 cDNA was obtained by digestion of pSPMM1 with BamH I, and then subcloned into the site of Bgl II in pXbG-2. Template DNAs for cRNA synthesis were amplified from the corresponding cRNA expression vectors with a high fidelity DNA polymerase, KOD—Plus—, (TOYOBO). The cRNAs were synthesized with mMESSAGE mMACHINE T7 Kit (Ambion), and then purified with RNeasy MiniElute Cleanup kit (Qiagen).
# Stage V or VI oocytes were extirpated from X. laevis females, and digested ovarian lobes with 0.2% (w/v) collagenase, type II (Sigma-Aldrich) in Ca^2+-free modified Barth's saline (MBS; 88.0 mM NaCl, 1.0 mM KCl, 2.4 mM NaHCO3, 15.0 mM Tris-Cl, 0.82 mM MgSO4, […] penicillin and streptomycin, pH7.6) at 15° C. for 3 h. The oocytes were microinjected with 40 nl of either 1 ng/nl of the TRET1::AcGFP1 or AcGFP1 cRNA, or nuclease-free water (Invitrogen) as a negative control. In order to express TRET1, the oocytes were incubated in MBS (containing 0.41 mM CaCl2) for 3-4 days after injection at 15° C. Fluorescence images of the oocytes injected with the cRNA were observed and analyzed with a fluorescence microscope BZ-8000 (KEYENCE).
# All uptake assays for zero-trans trehalose and/or other sugars were performed using Xenopus oocytes expressing TRET1 at 15° C. in MBS containing appropriate concentrations of sugars. Sugar concentrations were determined using HPLC (Watanabe, M., et al. (2002) J Exp Biol 205, 2799-2802). All assays were carried out in triplicate.
# Xenopus oocytes expressing either TRET1 or hGLUT1 were incubated in 105 mM of various sugars for 3 h. Tre: trehalose; Mal: maltose; Suc: sucrose; Lac: lactose; MAG: methyl-a-glucopyranoside; and 2-DOG: 2-deoxy-glucose (FIG. 3B).
# In General, transporters contain two sub-classes: facilitated transporters and secondary active transporters. Activities of secondary active transporters are dependent on the electrochemical membrane potential resulting from the distribution of ions such as H^+. For example, proton-dependent MAL11/AGT1 can act only under acidic extracellular conditions (Stambuk, B. U., et al. (1996) Eur J Biochem 237, 876-881). On the other hand, facilitated transporters function independently of the electrochemical membrane potential. Xenopus oocytes expressing TRET1 were incubated in 105 mM trehalose at pH 4.2 and 7.6 for 3 h.
# Xenopus oocytes expressing TRET1 were incubated in 105 mM trehalose with either control buffer (Mock; 0.1% acetone), or buffer containing various concentrations of nigericin (Na^+, K^+-ionophore), valinomycin (K^+-ionophore) or CCCP (H^+-ionophore, uncoupler) for 3 h.
# In general, facilitated transporters enable their substrates to flow across membranes down concentration gradients. Xenopus oocytes expressing TRET1 were first incubated in 105 mM trehalose for 3 h, and then transferred into trehalose-free buffer and trehalose content was examined over time.
# Xenopus oocytes expressing TRET1 were incubated in various concentrations of trehalose for 15 min. Uptake data were fitted to the Michaelis-Menten and Eadie-Hofstee (inset of FIG. 9) equations.
smiles,measurement,setting,value
OC[C@H]1O[C@H](O[C@H]2O[C@H](CO)[C@@H](O)[C@H](O)[C@H]2O)[C@H](O)[C@@H](O)[C@@H]1O [trehalose],time course of trehalose uptake into oocytes expressing TRET1,105 mM trehalose,increased linearly for at least 6 h
same,direction of trehalose transport after reversal of concentration gradient,"105 mM trehalose 3 h, then trehalose-free buffer",shifted from an inward to outward direction
same,pH-dependency of TRET1 trehalose transport,"105 mM trehalose, pH 4.2 and 7.6, 3 h",acted over a wide extracellular pH range
same,Vmax of TRET1 for trehalose,Xenopus oocytes expressing TRET1,7.84±0.77 nmol/15 min/oocyte
